How the values were obtained:
B-Raf V600E = B-Raf V600E (Homo sapiens (Human), UniProt P15056, V600E); experiment: B-Raf V600E kinase biochemical activity assay (AlphaScreen, biotin-MEK1 substrate); conditions: 100 μM ATP
Method: Assays for biochemical and cell based activity are known in the art, for example, as described in PCT publication WO 2007/002433, the disclosure of which is hereby incorporated by reference as it relates to such assays. For example, the biochemical activity IC50 values are determined with respect to inhibition of B-Raf V600E kinase activity or p-Erk kinase activity, where inhibition of phosphorylation of a peptide substrate is measured as a function of compound concentration. Compounds to be tested are diluted in dimethyl sulfoxide to a concentration of 0.1 mM. These are serially diluted 15 μL into 30 μL of dimethyl sulfoxide seven times in 96 well plates for a total of 8 dilution points, and for each dilution point 1 μL is added to a well of an assay plate. Plates are prepared such that each well in a 384 well plate contains 1 μL of compound in 10 μL volume with 0.1 ng Raf enzyme (i.e. any of B-Raf, c-Raf-1 or B-Raf V600E, Upstate Biotechnology or prepared by methods known to one of skill in the art), 50 mM HEPES, pH 7.0, 50 mM NaCl, 2 mM MgCl2, 1 mM MnCl2, 0.01% Tween-20, 1 mM DTT, and 100 nM biotin-MEK1 as substrate. The reaction is started with addition of 10 μL of 200 μM ATP (i.e. final 100 μM ATP). After incubation of the kinase reaction for 45 minutes at room temperature, 5 μL/well of Stop Solution is added (25 mM Hepes pH 7.5, 100 mM EDTA, 0.01% BSA with donor beads (Streptavidin coated beads, Perkin Elmer), acceptor beads (Protein A coated, Perkin Elmer), and anti phosphor MEK1/2 antibody (CellSignal), each at final concentration 10 μg/mL). The plates are incubated for 3 hours at room temperature and read on Envision reader (Perkin Elmer). Phosphorylation of Mek1 results in binding of the anti-phosphor-MEK1/2antibody and association of the donor and acceptor beads such that signal correlates with kinase activity. The signal vs. compound concentration is used to determine the IC50.

[1] = tested on: COLO205 colon adenocarcinoma cells (B-Raf V600E mutation); experiment: COLO205 cell growth inhibition (ATPlite); type: cell-based; conditions: Homo sapiens, COLO 205, 72 h, 3 days
Method: Compounds are assessed in a variety of cell based assays.
On day 1, cells are counted, then centrifuged in a conical tube for 5 minutes at 1000 rpm.
On day 2, compound at a maximum concentration of 5 mM is serially diluted 1:3 (e.g. 10 μL with 30 μL dimethyl sulfoxide) for a total of 8 point titration with DMSO as a control. A 1 μL aliquot of each dilution point and control is added to 249 μL growth media and 50 μL is added to a well containing cells, providing 10 μM compound at the maximum concentration point. The cells are incubated for 3 days at 37° C. in 5% CO2.
ATPlite is added 25 μL to each well, shake for 2 minutes, and the cells are incubated at room temperature for 10 minutes, then luminescence is read on Safire reader. The measured luminescence correlates directly with cell number, such that the reading as a function of compound concentration is used to determine the IC50 value.

Sequence of B-Raf V600E (P15056 whole entry V600E): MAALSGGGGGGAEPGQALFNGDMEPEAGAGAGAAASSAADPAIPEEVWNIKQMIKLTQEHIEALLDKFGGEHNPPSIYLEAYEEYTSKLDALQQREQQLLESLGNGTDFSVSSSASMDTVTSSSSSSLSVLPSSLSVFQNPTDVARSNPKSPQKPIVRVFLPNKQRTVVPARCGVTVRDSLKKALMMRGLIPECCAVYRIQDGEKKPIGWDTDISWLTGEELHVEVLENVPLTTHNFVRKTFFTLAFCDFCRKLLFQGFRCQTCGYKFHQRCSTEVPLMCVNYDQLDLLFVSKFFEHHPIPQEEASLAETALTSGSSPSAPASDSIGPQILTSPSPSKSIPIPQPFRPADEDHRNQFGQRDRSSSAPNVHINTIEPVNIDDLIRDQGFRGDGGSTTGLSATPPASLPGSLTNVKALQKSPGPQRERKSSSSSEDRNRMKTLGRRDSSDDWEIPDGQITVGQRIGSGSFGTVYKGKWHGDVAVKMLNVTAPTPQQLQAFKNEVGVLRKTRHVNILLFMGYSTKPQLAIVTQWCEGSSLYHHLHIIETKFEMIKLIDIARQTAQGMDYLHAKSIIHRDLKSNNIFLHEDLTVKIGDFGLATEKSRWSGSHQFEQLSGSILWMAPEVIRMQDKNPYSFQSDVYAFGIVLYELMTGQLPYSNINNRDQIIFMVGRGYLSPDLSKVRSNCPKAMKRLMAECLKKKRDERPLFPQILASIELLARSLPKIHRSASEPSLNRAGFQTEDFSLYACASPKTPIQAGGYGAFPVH

Row | Compound | IC50 (B-Raf V600E) [µM] | IC50 [1] [µM]
1 | N#Cc1ccc(-c2cnc3[nH]cc(C(=O)c4cccc(NS(=O)(=O)N5CCCC5)c4F)c3c2)cc1 [Compound P-0090, N-[3-[5-(4-cyanophenyl)-1H-pyrrolo[2,3-b]pyridine-3-carbonyl]-2-fluoro-phenyl]pyrrolidine-1-sulfonamide] | < 0.1 | < 1
2 | COCCN(C)S(=O)(=O)Nc1cccc(C(=O)c2c[nH]c3ncc(-c4cnc(OC)nc4)cc23)c1F [Compound P-0073, 3-[2-fluoro-3-[[2-methoxyethyl(methyl)sulfamoyl]amino]benzoyl]-5-(2-methoxypyrimidin-5-yl)-1H-pyrrolo[2,3-b]pyridine] | > 0.1 | > 1
3 | CN(C)c1ncc(-c2cnc3[nH]cc(C(=O)c4cccc(NS(=O)(=O)N(C)C)c4F)c3c2)cn1 [Compound P-0106, 5-[2-(dimethylamino)pyrimidin-5-yl]-3-[3-(dimethylsulfamoylamino)-2-fluoro-benzoyl]-1H-pyrrolo[2,3-b]pyridine] | < 0.1 | < 1
4 | CC1(C)CCN(S(=O)(=O)Nc2cccc(C(=O)c3c[nH]c4ncc(-c5cnc(C6CC6)nc5)cc34)c2F)C1 [Compound P-0246, N-[3-[5-(2-cyclopropylpyrimidin-5-yl)-1H-pyrrolo[2,3-b]pyridine-3-carbonyl]-2-fluoro-phenyl]-3,3-dimethyl-pyrrolidine-1-sulfonamide] | < 0.1 | > 1
5 | CCC(C)S(=O)(=O)Nc1cccc(C(=O)c2c[nH]c3ncc(-c4cnc(C)nc4)cc23)c1F (stereo not shown) [Compound P-0231, N-[2-fluoro-3-[5-(2-methylpyrimidin-5-yl)-1H-pyrrolo[2,3-b]pyridine-3-carbonyl]phenyl]butane-2-sulfonamide] | < 0.1 | < 1
6 | O=C(c1cccc(NS(=O)(=O)N2CCCC2)c1F)c1c[nH]c2ncc(-c3cnc(N4CCOCC4)nc3)cc12 [Compound P-0235, N-[2-fluoro-3-[5-(2-morpholinopyrimidin-5-yl)-1H-pyrrolo[2,3-b]pyridine-3-carbonyl]phenyl]pyrrolidine-1-sulfonamide] | < 0.1 | < 1

Continued, values first:

Row | IC50 (B-Raf V600E) [µM] | IC50 [1] [µM] | Compound
7 | < 0.1 | < 1 | Nc1ncc(-c2cnc3[nH]cc(C(=O)c4c(F)ccc(NS(=O)(=O)N5CCCC5)c4F)c3c2)cn1 [Compound P-0279, N-[3-[5-(2-aminopyrimidin-5-yl)-1H-pyrrolo[2,3-b]pyridine-3-carbonyl]-2,4-difluoro-phenyl]pyrrolidine-1-sulfonamide]
8 | < 0.1 | < 1 | CCN(C)S(=O)(=O)Nc1ccc(F)c(C(=O)c2c[nH]c3ncc(-c4cnc(N5CCC(O)CC5)nc4)cc23)c1F [Compound P-0275, 3-[3-[[ethyl(methyl)sulfamoyl]amino]-2,6-difluoro-benzoyl]-5-[2-(4-hydroxy-1-piperidyl)pyrimidin-5-yl]-1H-pyrrolo[2,3-b]pyridine]
9 | < 0.1 | > 1 | COCCN(C)S(=O)(=O)Nc1cccc(C(=O)c2c[nH]c3ncc(-c4cnc(C5CC5)nc4)cc23)c1F [Compound P-0085, 5-(2-cyclopropylpyrimidin-5-yl)-3-[2-fluoro-3-[[2-methoxyethyl(methyl)sulfamoyl]amino]benzoyl]-1H-pyrrolo[2,3-b]pyridine]
10 | < 0.1 | < 1 | CN(CC(F)(F)F)S(=O)(=O)Nc1ccc(F)c(C(=O)c2c[nH]c3ncc(-c4cnc(C5CC5)nc4)cc23)c1F [Compound P-0340, 5-(2-cyclopropylpyrimidin-5-yl)-3-[2,6-difluoro-3-[[methyl(2,2,2-trifluoroethyl)sulfamoyl]amino]benzoyl]-1H-pyrrolo[2,3-b]pyridine]
11 | < 0.1 | < 1 | CCN(C)S(=O)(=O)Nc1ccc(F)c(C(=O)c2c[nH]c3ncc(-c4ccc(C5(O)CC5)cc4)cc23)c1F [Compound P-0314, 3-[3-1[[ethyl(methyl)sulfamoyl]amino]-2,6-difluoro-benzoyl]-5-[4-(1-hydroxycyclopropyl)phenyl]-1H-pyrrolo[2,3-b]pyridine]
